From PubChem BioAssay AID1508591

settings: rat; liver microsomes; pH 7.4; 15.0 min; 1.0 µM

| SMILES | half-life [min] |
| --- | --- |
| Cc1sc(NC(=O)Cc2ccc3c(c2)OCO3)nc1-c1ccc2c(c1)CCN2C(=O)C1CCCCC1 | 8.6 |
| Cc1cccc(-n2cnc3cc(C(=O)N4CCCC(C(C)C)C4)ccc32)c1 (stereo not drawn) | 1.8 |
| O=c1c(O)c(-c2ccc(O)cc2)oc2cc(O)cc(O)c12 | 6.13 |
| CCN(CC)CCOc1ccc2c(=O)c3ccc(Cl)cc3n(CCN(CC)CC)c2c1 | 7.9 |
| CCOc1cc(CCNC(=O)c2cc3sccc3n2Cc2ccccc2)cc(F)c1OCC | 2 |
| CCOC(=O)C1CCN(c2ncc(-c3ccc4c(c3)OCCCO4)s2)CC1 | 2.37 |
| COc1ccc(NC(=O)c2[nH]c(C)c(C(C)=O)c2C)cc1S(=O)(=O)N1CCCCC1 | 6 |
| CCOc1ccc(CCNC(=O)c2ccnn2Cc2cccc(C)c2)cc1OCC | 1.5 |
| CCN(CC)CCCC(C)Nc1cc(/C=C/c2ccccc2Cl)nc2cc(Cl)ccc12 (stereo not drawn) | 7.34 |
| O=C(c1ccc2c(c1)ncn2-c1ccc(Cl)cc1)N1CCCCC1 | 9.8 |
| O=C1Nc2ccccc2/C1=C\c1ccc(O)c(Cl)c1 | 16 |
| Clc1ccc(-c2nnc(C3CCCCC3)o2)cc1 | 2.9 |
| Cc1ccc(C(=O)Nc2nc3nc(C)cc(=O)n3[nH]2)cc1 | > 30 |
| Cc1onc(-c2ccccc2)c1C(=O)Nc1nnc(COc2ccc(Cl)cc2)s1 | > 30 |
| Oc1cccc(-c2nc(N3CCOCC3)c3oc4ncccc4c3n2)c1 | 21.8 |
| CCOC(=O)Cc1ccc(NC(=O)n2ncc3cc(Cl)ccc32)cc1 | 2.5 |
| OC1(CN2CCN(c3ccc(F)c(Cl)c3)CC2)CCCNC1 (stereo not drawn) | 5.96 |
| COc1ccc(CCNc2ncnc3c2c(-c2ccccc2)cn3-c2cccc(Cl)c2)cc1OC | 2.33 |
| Cc1ccccc1C(=O)N1CCc2cc(-c3nc(NC(=O)c4ccc5c(c4)OCO5)sc3C)ccc21 | > 30 |
| COc1ccc(-n2nc(C3CCCN(C(=O)Cc4ccccn4)C3)[nH]c2=O)cc1 (stereo not drawn) | > 30 |
| CC(C)c1ccc(OCc2nc3c(n2Cc2ccccc2)C(=O)N(CC2CC2)CCN3)cc1 | 1.82 |
| O=C(C1CCN(c2nc(-c3ccc(Br)cc3)cs2)CC1)N1CCOCC1 | > 30 |
| COc1ccc(OC)c(CN2CCNc3cc(Nc4ccccc4)ncc3C2)c1 | 2.23 |
| COc1ccccc1NC(=O)C1=C(C)Nc2c(C(=O)Nc3cccc(C)c3)cnn2C1c1ccccc1Cl (stereo not drawn) | 2.98 |
| CN1CCCC(CC2c3ccccc3Sc3ccccc32)C1 (stereo not drawn) | 1.4 |
| COc1cc(-c2nc(Nc3ccc(F)c(F)c3)c3ccccc3n2)c(F)cn1 | > 30 |

| SMILES | half-life [min] |
| --- | --- |
| O=C1CCCC2=C1C(c1ccccc1Br)N=C(Nc1nc3ccccc3o1)N2 (stereo not drawn) | 9.6 |
| Cc1ccc(NS(=O)(=O)c2c(C)[nH]c(C)c2C(=O)N2CCCC2)cc1Cl | 1.03 |
| Cn1cc(Nc2cnccc2C(=O)O)c2cccnc21 | > 30 |
| CC(C)(Nc1nc(-c2ccccc2C(F)(F)F)nc2ccccc12)c1ccc(-c2cccc(C(F)(F)F)c2)cc1 | > 30 |
| CCC(CC)(NC(=O)C(C)C)C(=O)N[C@@H](CCCN=C(N)N)C(=O)NC1(C(=O)NC(c2ccc(F)cc2)c2ccc(F)cc2)CCCC1 | > 30 |
| N#CC1CCN(c2nc(-c3ccc(Br)cc3)cs2)CC1 | 24.7 |
| COC(=O)c1ccnc(NC(=S)N2CCN(c3cccc(C(F)(F)F)c3)CC2)c1 | > 30 |
| CC/C=C\C/C=C\C/C=C\C/C=C\C/C=C\C/C=C\CCC(=O)NCCO | 4.94 |
| N#Cc1ccc(NS(=O)(=O)c2ccc(NC(=O)Cc3ccc(F)c(Cl)c3)cc2)cc1 | > 30 |
| COc1ccc(Nc2nnc(-c3ccc(C)c(S(=O)(=O)NCc4nc5ccccc5[nH]4)c3)c3ccccc23)cc1 | 5.72 |
| Cc1ccc(S(=O)(=O)Nc2cnccc2C(=O)Nc2nc(-c3cccc(C)c3)cs2)cc1 | 5.8 |
| O=C(C1CC(=O)N(c2n[nH]c3ccccc23)C1)N1CCC(c2noc3cc(F)ccc23)CC1 (stereo not drawn) | 19.1 |
| CC[C@H](C)[C@@H]([C@@H](CC(=O)N1CCC[C@H]1[C@H](OC)[C@@H](C)C(=O)N[C@@H](Cc1ccccc1)c1nccs1)OC)N(C)C(=O)[C@@H](NC(=O)[C@H](C(C)C)N(C)C)C(C)C | > 30 |
| Cc1ccc2[nH]c(-c3ccccc3)cc(=O)c2c1 | 15.9 |
| COc1ccc(C(=O)Nc2nc(-c3ccccc3)cs2)c(NS(=O)(=O)c2ccc(C)cc2)c1 | 6.5 |
| Nc1nc(Nc2ccc(S(N)(=O)=O)cc2)n(C(=S)Nc2c(F)cccc2F)n1 | > 30 |
| COC(=O)c1cc(Cl)ccc1NC(=O)CSc1ncc(S(=O)(=O)c2ccc(Br)cc2)c(=O)[nH]1 | 18 |
| CCOc1ccc(CCNC(=O)c2cc3sccc3n2Cc2ccc(Cl)c(F)c2)cc1OCC | 1.75 |
| O=C(Nc1ncc(-c2ccccc2)s1)c1ccc(-c2cccc([N+](=O)[O-])c2)o1 | > 30 |
| CNc1ncc(-c2cccc3ccccc23)o1 | 9.9 |
| O=C(Nc1ccc(S(=O)(=O)Nc2nccs2)cc1)c1ccnc2ccccc12 | > 30 |
| Cc1cc(C)nc(NC(=S)N2CCN(c3ccc(F)cc3F)CC2)c1 | > 30 |
| CC1CCc2ccc(F)cc2N1S(=O)(=O)c1cccs1 (stereo not drawn) | 2.7 |
| Cc1ccc(-c2ccc(CNc3nc(-c4ccccc4C(C)C)ncc3C)cc2)cn1 | 4.28 |
| CCc1cccc(NC(=O)CSc2nc3ccccc3nc2N2CCCCC2)c1 | 1.97 |
| Cc1ccccc1C(=O)N1CCC(C(=O)N2CCC(N3Cc4ccccc4C3=O)CC2)CC1 | 11.8 |

| SMILES | half-life [min] |
| --- | --- |
| O=C(O)c1ccccc1C(=O)Nc1ccc(-c2ccccc2)cc1 | > 30 |
| CCCCN1CCC[C@H]1CNC(=O)c1cc(C#N)c2ccccc2c1OC | 4.23 |
| COc1ccc(-c2[nH]nc3ncc(-c4ccc(CO)cc4)nc23)cc1F | 11.3 |
| Cc1ccccc1C(C(=O)NC1CCCC1)N(C(=O)Cn1cnc2ccccc21)c1cccc(F)c1 (stereo not drawn) | 1.67 |
| Cc1cccc2c1NC(=O)/C2=C/c1cc(Cl)c(O)c(Cl)c1 | 26 |
| Cc1noc(C)c1-c1cc2c(cc(C)n2C)c(-c2cnn(C)c2)n1 | > 30 |
| CCc1cccc(C)c1Nc1c(-c2ccc(N(C)C)cc2)nc2ncccn12 | 4.23 |
| CCc1ccccc1Nc1ncnc2c1cnn2-c1ccc(Cl)cc1 | 7.13 |
| CC(C)(C)c1cc(NC(=O)Nc2ccc(-c3cn4c(n3)sc3cc(OCCN5CCOCC5)ccc34)cc2)no1 | > 30 |
| CN1C(=O)c2ccccc2[S@](=O)c2ccc(C(=O)NCc3cccnc3)cc21 | > 30 |
| Cc1cnc(-c2ccccc2C(C)C)nc1NCC1CCN(c2cccnc2)CC1 | 3.9 |
| Cc1[nH]c2ccccc2c1CN1CCN(c2ccccn2)CC1 | 1.7 |
| COc1ccc(-n2nc(C3CCN([S+](=O)([O-])c4c(C)noc4C)CC3)[nH]c2=O)cc1 | 22.9 |
| Cc1cc(C)nc(NC(=S)N2CCN(Cc3cccc(C(F)(F)F)c3)CC2)c1 | > 30 |
| Cc1ccc(C(=O)Nc2nc3nc(-c4ccccc4)cc(=O)n3[nH]2)cc1 | > 30 |
| Fc1cc(Nc2nc(-c3ccncc3)nc3ccccc23)ccc1C(F)(F)F | 17 |
| O=C1Nc2c(Cl)cccc2/C1=C\c1cc(Cl)c(O)c(Cl)c1 | > 30 |
| CC(=O)Nc1ccc(OCc2cn(CC(=O)c3ccc(O)cc3)nn2)cc1 | > 30 |
| Nc1nc(Nc2ccc(S(N)(=O)=O)cc2)nn1C(=O)c1c(F)cccc1F | > 30 |
| O=C(Nc1nc(-c2ccccc2)cs1)c1ccncc1NS(=O)(=O)c1c(F)cc(F)cc1F | 5.7 |
| O=C(NC1CC1)c1nc(-c2cccnc2)c2cnccn12 | > 30 |
| NC(=O)C1CCN(c2nc(-c3ccccc3)cs2)CC1 | 3.88 |
| Oc1ccc2[nH]cc(CCCCN3CC=C(c4ccccc4)CC3)c2c1 | > 30 |
| O=C(Nc1ccc(S(=O)(=O)N2CCN(Cc3ccccc3)CC2)cc1)c1cnccn1 | 1.8 |
| CN(C)c1cccc(-c2nccc(N3CCC(C(N)=O)CC3)n2)c1 | 8.43 |
| COC(=O)c1sccc1NC(=O)c1sccc1C | 1.46 |

| SMILES | half-life [min] |
| --- | --- |
| COc1cccc(CNc2ccc(S(=O)(=O)Nc3cccnc3)cc2)c1O | 15 |
| O=C(Oc1ccc[nH]c1=O)c1cc([N+](=O)[O-])cc([N+](=O)[O-])c1 | 1.46 |
| Cc1ccc(-c2cc(C(=O)NCc3cnn(C)c3C)c3cc(Br)ccc3n2)cc1 | 12 |
| Cn1c2ccccc2c2c3c(c4c5ccccc5n(CCC#N)c4c21)CNC3=O | 4.29 |
| Cc1cccc(Nc2nc(NCc3ccco3)c3ccccc3n2)c1 | 3.54 |
| CCNC(=O)c1noc(-c2cc(C(C)C)c(O)cc2O)c1-c1ccc(CN2CCOCC2)cc1 | 4.7 |
| Cc1ccc(-c2cc(C(=O)Nc3cccc(S(N)(=O)=O)c3)c3ccccc3n2)cc1C | 12 |
| O=C1CCCC2=C1C1(CCCC1)N=C(Nc1nc3cc(Cl)ccc3o1)N2 | 2.6 |
| Cc1ccc(S(=O)(=O)Nc2ccccc2C(=O)Nc2cnc(-c3ccccc3)cn2)cc1 | 3.5 |
| Fc1cc(Nc2nc(-c3ccncc3)nc3ccccc23)ccc1-c1ccc2[nH]ncc2c1 | > 30 |
| CCCCNC(=O)CN1CCN(c2ncc(NC(=O)c3ccc(Cl)cc3)cc2C(=O)O)CC1 | > 30 |
| CC(=O)c1c(C)[nH]c(C(=O)Nc2cccc(S(=O)(=O)N3CCCCCC3)c2)c1C | 1.6 |
| COc1ccc(CN2CCNc3cc(Nc4ccccc4)ncc3C2)cc1 | 3.17 |
| N#Cc1ccc(NS(=O)(=O)c2ccc(NC(=O)Cc3ccc(Cl)c(Cl)c3)cc2)cc1 | > 30 |
| CNc1sc(-c2cccc3ccccc23)nc1C#N | 12.9 |
| COc1cc2c(c(OC)c1OC)-c1ccc(OC)c(=O)cc1[C@@H](NC(C)=O)CC2 | > 30 |
| COc1ccc(CN(C2CCCCC2C)S(=O)(=O)c2ccc(S(=O)(=O)N(C)C)cc2)cc1OC (stereo not drawn) | 1.6 |
| COC(=O)CNC(=O)c1nc(-c2ccc(Cl)nc2)c2ccccn12 | 4.72 |
| O=c1[nH]cnc2c1ccn2C1OC(CO)C(O)C1O (stereo not drawn) | > 30 |
| O=C1/C(=C\c2ccccc2)C[C@@]2(O)C3Cc4ccc(O)c5c4[C@@]2(CCN3CC2CC2)[C@H]1O5 | 3.37 |
| CCOc1ccccc1C(=O)NC1CCN(c2cc(C)cc(C)c2)C1=O (stereo not drawn) | 8.98 |
| NC(=O)NCC(=O)N[C@H]1CC[C@H](Nc2nccc(-c3ccncc3)n2)C1 | > 30 |
| O=S(=O)(Nc1nccs1)c1ccc(NCc2ccccc2)cc1 | 10 |
| COc1cccc(-c2nc3cc(NC(=O)c4ccc(C)c([N+](=O)[O-])c4)ccc3o2)c1 | > 30 |
| Cc1cc(Nc2ccc(Br)c(C)c2)n2nc(C)nc2n1 | 6.7 |
